One experiment relates to U87.MG (glioblastoma). Put plainly: MTT cytotoxicity assay, 72 hours. The following applies: U87MG (Glioblastoma), 72 h MTT, Table 2. In kind it is cell-based, human. How it is done:
(§1) After 72 hours, the assay was terminated and percent cyotoxicities calculated.
For orientation: Formazan colour is commonly taken as a measure of viable cells.

Another experiment has as its system KB (oral). Put plainly: MTT cytotoxicity assay, 72 hours. In kind it is cell-based, human. Particulars: KB (Oral), 72 h MTT, Table 2. How it is done: as §1
For a further experiment, the system named is PA1 (ovary). Put plainly: MTT cytotoxicity assay, 72 hours. Particulars: PA-1 (Ovary), 72 h MTT, Table 2. In kind it is cell-based, human. The procedure:
as §1

Another experiment has as its system PTC (colon). The experiment is described as follows: MTT cytotoxicity assay, 72 hours. The following applies: PTC (Colon), 72 h MTT, Table 2. The format is cell-based, human. How it is done: as §1
A further experiment relates to L132 (lung). The experiment is described as follows: MTT cytotoxicity assay, 72 hours. In kind it is cell-based, human. The following applies: L132 (Lung), 72 h MTT, Table 2. How it is done: as §1
The subject of another experiment is MOLT4 (leukemia). The experiment is described as follows: MTT cytotoxicity assay, 72 hours. The format is cell-based, human. The following applies: MOLT-4 (Leukemia), 72 h MTT, Table 2. The procedure:
as §1

The subject of a further experiment is B16F10 (melanoma). Put plainly: MTT cytotoxicity assay, 72 hours. The format is cell-based, human. The following applies: B16.F10 (Melanoma), 72 h MTT, Table 2. The procedure:
as §1

The next experiment relates to MiaPaCa.2 (pancreas). The experiment is described as follows: MTT cytotoxicity assay, 72 hours. The format is cell-based, human. The following applies: MiaPaCa.2 (Pancreas), 72 h MTT, Table 2. How it is done: as §1
A further experiment deals with HBL100 (breast). Put plainly: MTT cytotoxicity assay, 72 hours. In kind it is cell-based, human. The following applies: HBL100 (Breast), 72 h MTT, Table 2. How it is done: as §1
In the next experiment the test system is β-receptor. The following applies: preclinical studies; cited from earlier work.

In brackets after ≈: the same amount, converted by molar mass.

Take `COc1ccccc1OCCNC[C@@H](O)COc1cccc2[nH]c3ccccc3c12` (single isomer, unassigned) [R(+) isomer]: the ED50 is 14.5 ± 2.9 µg/mL (≈ 35.7 µM) in the experiment with U87.MG (glioblastoma); 12.0 ± 2.6 µg/mL (≈ 29.5 µM) with KB (oral); 10.0 ± 1.5 µg/mL (≈ 24.6 µM) in the experiment with PA1 (ovary); 7.0 ± 0.4 µg/mL (≈ 17.2 µM) in the experiment on PTC (colon); 16.0 ± 3.1 µg/mL (≈ 39.4 µM) in the experiment on L132 (lung); 12.0 ± 1.6 µg/mL (≈ 29.5 µM) in the experiment on MOLT4 (leukemia). The figures for the ED50 with B16F10 (melanoma), in the experiment with MiaPaCa.2 (pancreas) and in the experiment with HBL100 (breast) were 10.5 ± 1.6 µg/mL (≈ 25.8 µM), 27.0 ± 2.7 µg/mL (≈ 66.4 µM) and 32.8 ± 3.7 µg/mL (≈ 80.7 µM), respectively.
Take `COc1cc(O)ccc1OCCNCC(O)COc1cccc2[nH]c3ccccc3c12` (stereo not shown) [4′-hydroxyphenyl metabolite]: in the experiment with β-receptor, the “potency for β-blockade relative to carvedilol” value is given as “approximately 13 times”.
With `COc1ccccc1OCCNC[C@H](O)COc1cccc2[nH]c3ccccc3c12` (single isomer, unassigned) [S(−) isomer], the ED50 came to 18.5 ± 2.1 µg/mL (≈ 45.5 µM) in the experiment with U87.MG (glioblastoma); 19.0 ± 3.4 µg/mL (≈ 46.7 µM) in the experiment on KB (oral); 13.0 ± 1.3 µg/mL (≈ 32 µM) in the experiment on PA1 (ovary); 7.5 ± 0.4 µg/mL (≈ 18.5 µM) in the experiment on PTC (colon); 22.6 ± 3.8 µg/mL (≈ 55.6 µM) in the experiment with L132 (lung); 17.0 ± 2.5 µg/mL (≈ 41.8 µM) in the experiment with MOLT4 (leukemia). The ED50 was determined as 11.4 ± 2.1 µg/mL (≈ 28 µM) in the experiment with B16F10 (melanoma), 33.0 ± 3.9 µg/mL (≈ 81.2 µM) in the experiment on MiaPaCa.2 (pancreas) and 33.5 ± 4.2 µg/mL (≈ 82.4 µM) in the experiment with HBL100 (breast).

The record behind these values is patent US6632832B1 (Dabur Research Foundation, priority 2002, dated 2003).
